# Assay results published in patent US10770169B2, “Method of providing a treatment to a subject based on a dynamic pathway map” (THE REGENTS OF THE UNIVERSITY OF CALIFORNIA, priority 2010, dated 2020).
# Entries after “also recorded” stand apart in the source; their conditions may differ.
# Legend:
# Assay type in all cases: cell-based, human
# [1] = tested on: luminal, basal, claudin-low and ERBB2AMP breast cancer cell lines; experiment: Associations of clinically relevant subtypes and response (non-parametric ANOVA or t-test on GI50 ranks); conditions: Table 6; most sensitive subtype, FDR p<0.20
# Summary of the method: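 GI50 values were compared between cell-line subtype groups by non-parametric ANOVA or t-test on ranks. P-values from three test sets were combined and FDR-corrected. Significant three-group effects were followed by post-hoc comparison of each group against all others, and FDR p<0.20 counted as significant.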
# [2] = tested on: panel of 55 breast cancer cell lines; experiment: Cell growth inhibition assay (Cell Titer Glo, 72 h, 9 doses; GI50, TGI, LC50); conditions: value is the negative log10 of mol/L
# [3] = tested on: breast cancer cell lines with aberrant vs normal copy number; experiment: Association of recurrent copy number changes and response (t-test on GI50); conditions: FDR p<0.2
# Summary of the method: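 A t-test compared GI50 between cell lines with high amplification at 8q24 (MYC), 11q13 (CCND1) or 20q13 (STK15/AURKA) and lines with low or no amplification, grouped together. Lines whose GI50 equalled the maximum concentration tested were excluded. Compounds with any group under five samples were also excluded.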
compound,measurement,setting,value
N.N.O=C([O-])C1(C(=O)[O-])CCC1.[Pt+2] [Carboplatin],Subtype specificity,[1],Basal + Claudin-low
same,GI50,"[2]; 600MPE cell line, censored GI50 values",3.82
same,GI50,"[2]; AU565 cell line, censored GI50 values",4.94
same,GI50,"[2]; BT474 cell line, censored GI50 values",3.98
same,GI50,"[2]; BT483 cell line, censored GI50 values",5.82
same,GI50,"[2]; BT549 cell line, censored GI50 values",4.58
same,GI50,"[2]; CAMA1 cell line, censored GI50 values",3.72
same,GI50,"[2]; HCC38 cell line, censored GI50 values",4.76
same,GI50,"[2]; HCC70 cell line, censored GI50 values",4.82
same,GI50,"[2]; HCC202 cell line, censored GI50 values",4.44
same,GI50,"[2]; HCC1143 cell line, censored GI50 values",3.85
same,GI50,"[2]; HCC1187 cell line, censored GI50 values",4.66
same,GI50,"[2]; HCC1395 cell line, censored GI50 values",5.00
same,GI50,"[2]; HCC1419 cell line, censored GI50 values",4.15
same,GI50,"[2]; HCC1428 cell line, censored GI50 values",3.86
same,GI50,"[2]; HCC1500 cell line, censored GI50 values",4.69
same,GI50,"[2]; HCC1806 cell line, censored GI50 values",4.80
same,GI50,"[2]; HCC1937 cell line, censored GI50 values",4.44
same,GI50,"[2]; HCC1954 cell line, censored GI50 values",4.37
same,GI50,"[2]; HCC2185 cell line, censored GI50 values",4.69
same,GI50,"[2]; HCC3153 cell line, censored GI50 values",4.45
same,GI50,"[2]; LY2 cell line, censored GI50 values",4.39
same,GI50,"[2]; MCF7 cell line, censored GI50 values",3.77
same,GI50,"[2]; MDAMB134VI cell line, censored GI50 values",3.73
same,GI50,"[2]; MDAMB157 cell line, censored GI50 values",4.07
same,GI50,"[2]; MDAMB175VII cell line, censored GI50 values",4.44
same,GI50,"[2]; MDAMB231 cell line, censored GI50 values",4.09
same,GI50,"[2]; MDAMB361 cell line, censored GI50 values",4.34
same,GI50,"[2]; MDAMB415 cell line, censored GI50 values",3.73
same,GI50,"[2]; MDAMB436 cell line, censored GI50 values",4.18
same,GI50,"[2]; MDAMB453 cell line, censored GI50 values",4.23
same,GI50,"[2]; MDAMB468 cell line, censored GI50 values",4.31
same,GI50,"[2]; SKBR3 cell line, censored GI50 values",4.87
same,GI50,"[2]; SUM52PE cell line, censored GI50 values",4.71
same,GI50,"[2]; SUM149PT cell line, censored GI50 values",4.87
same,GI50,"[2]; SUM159PT cell line, censored GI50 values",4.55
same,GI50,"[2]; SUM185PE cell line, censored GI50 values",3.90
same,GI50,"[2]; SUM1315MO2 cell line, censored GI50 values",4.56
same,GI50,"[2]; T47D cell line, censored GI50 values",3.95
same,GI50,"[2]; UACC812 cell line, censored GI50 values",4.81
same,GI50,"[2]; ZR75B cell line, censored GI50 values",3.52
same,GI50,"[2]; ZR751 cell line, censored GI50 values",4.07
same,GI50,"[2]; ZR7530 cell line, censored GI50 values",4.55
same,GI50,[2]; cell line 600MPE,3.82
same,GI50,[2]; cell line AU565,4.94
same,GI50,[2]; cell line BT474,3.98
same,GI50,[2]; cell line BT483,5.82
same,GI50,[2]; cell line BT549,4.58
same,GI50,[2]; cell line CAMA1,3.72
same,GI50,[2]; cell line HCC38,4.76
same,GI50,[2]; cell line HCC70,4.82
same,GI50,[2]; cell line HCC202,4.44
same,GI50,[2]; cell line HCC1143,3.85
same,GI50,[2]; cell line HCC1187,4.66
same,GI50,[2]; cell line HCC1395,5.00
same,GI50,[2]; cell line HCC1419,4.15
same,GI50,[2]; cell line HCC1428,3.86
same,GI50,[2]; cell line HCC1500,4.69
same,GI50,[2]; cell line HCC1806,4.80
same,GI50,[2]; cell line HCC1937,4.44
same,GI50,[2]; cell line HCC1954,4.37
same,GI50,[2]; cell line HCC2185,4.69
same,GI50,[2]; cell line HCC3153,4.45
same,GI50,[2]; cell line LY2,4.39
same,GI50,[2]; cell line MCF7,3.77
same,GI50,[2]; cell line MDAMB134V,3.73
same,GI50,[2]; cell line MDAMB157,4.07
same,GI50,[2]; cell line MDAMB175V,4.44
same,GI50,[2]; cell line MDAMB231,4.09
same,GI50,[2]; cell line MDAMB361,4.34
same,GI50,[2]; cell line MDAMB415,3.73
same,GI50,[2]; cell line MDAMB436,4.18
same,GI50,[2]; cell line MDAMB453,4.23
same,GI50,[2]; cell line MDAMB468,4.31
same,GI50,[2]; cell line SKBR3,4.87
same,GI50,[2]; cell line SUM52PE,4.71
same,GI50,[2]; cell line SUM149PT,4.87
same,GI50,[2]; cell line SUM159PT,4.55
same,GI50,[2]; cell line SUM185PE,3.90
same,GI50,[2]; cell line SUM1315MO,4.56
same,GI50,[2]; cell line T47D,3.95
same,GI50,[2]; cell line UACC812,4.81
same,GI50,[2]; cell line UACC893,3.04
same,GI50,[2]; cell line ZR75B,3.52
same,GI50,[2]; cell line ZR751,4.07
same,GI50,[2]; cell line ZR7530,4.55
same,association of response with amplification at 11q13 (CCND1),[3],associated with sensitivity; also recorded: associated with response
